{"source": "paper PMC9143054", "about": "(Journal of Personalized Medicine, 2022)", "key": {"[1]": {"conditions": "cited from earlier work"}, "[2]": {"experiment": "Acetaminophen pharmacokinetics after 1 g intravenous infusion (serum LC-MS/MS, noncompartmental analysis)", "type": "in vivo, human", "description": "Serum samples were collected every 30 min starting from the administration until 6 h after the treatment was initiated and immediately frozen at −80 °C until analysis. […] The protocol also included the collection of whole blood samples for genetic analyses.\nThe samples were mixed for 15 s and kept on ice for 20 min. Then, the samples were centrifuged for 10 min at 3000× g, at 4 °C. The supernatant (750 μL) was evaporated under a nitrogen stream. Then, the samples were resuspended in 40 μL of a mixture containing water ([…]), methanol (2.5%), and formic acid (0.1%). […] The column temperature was set at 20 °C. The flow rate was 0.2 mL/min, and the mobile phase consisted of the following gradient: Mobile phase A: 0.1% formic acid in water; Mobile phase B: 0.1 formic acid in methanol. The elution was started with a proportion of 97.5% A:2.5% B. A linear gradient increase from 2.5% to 65%B over 0.6 min was used, and then, the mobile phase reversed to initial conditions. The mass spectrometer was operated in positive electrospray ionization using multiple reaction monitoring (MRM). The source was set at 500 °C and 5.5 kV. […] Pharmacokinetic analyses were carried out by use of WinNonlin® V5.3 (Pharsight Corporation, St. Louis, MO, USA). The pharmacokinetic model chosen to calculate all parameters was noncompartmental with intravenous infusion. Untransformed data were used for all analyses."}, "[3]": {"experiment": "Adverse drug events attributable to acetaminophen in the study participants", "type": "in vivo, human", "conditions": "single 1 g iv dose, ICU patients"}, "[4]": {"conditions": "UGT1A6*2/*2 diplotype vs UGT1A6*1/*1"}, "[5]": {"conditions": "UGT1A6*2/*4 diplotype vs UGT1A6*1/*1"}, "[6]": {"conditions": "concomitant drug therapy: Other (Inhibitors + Inducers) (n = 1), single patient, 1 g iv"}, "[7]": {"conditions": "human, serum, concomitant drug therapy: Other (Inhibitors + Inducers) (n = 1), single patient, 1 g iv"}}, "note": "Where two headings read alike, the source gives them in different places.", "data": [{"smiles": "CC(=O)Nc1ccc(O)cc1", "note": "[Acetaminophen]", "values": [{"measurement": "fraction of acetaminophen metabolized in vivo", "setting": "[1]", "value": "about 90%"}, {"measurement": "acetaminophen glucuronides as share of the metabolites recovered in urine", "setting": "[1]; urine", "value": "about half"}, {"measurement": "acetaminophen glucuronides as share of the urine metabolites", "setting": "[1]; urine", "value": "more than 50%"}, {"measurement": "effect of UGT1A9 genotypes (UGT1A9*1/*3, *3/*3) on pharmacokinetics", "setting": "[2]; 65 individuals without UGT1A6 variants, Supplementary Table S5", "value": "No major differences"}, {"measurement": "pharmacokinetics in individuals who required on-demand opiates vs those who did not", "setting": "[2]; Supplementary Table S6", "value": "No significant differences"}, {"measurement": "increase in drug exposure (AUMC)", "setting": "[2]; [4]", "value": 66, "unit": "%"}, {"measurement": "increase in t1/2 values", "setting": "[2]; [4]", "value": 38, "unit": "%"}, {"measurement": "increase in drug exposure (AUMC)", "setting": "[2]; [5]", "value": 76, "unit": "%"}, {"measurement": "increase in t1/2 values", "setting": "[2]; [5]", "value": 31, "unit": "%"}, {"measurement": "K10", "setting": "[2]; [6]", "value": "0.45; - 1/h"}, {"measurement": "V (volume of distribution)", "setting": "[2]; [6]", "value": "299.16; - mg/(ug/mL)"}, {"measurement": "Vss", "setting": "[2]; [6]", "value": "299.16; - mg/(ug/mL)"}, {"measurement": "increase in t1/2 values", "setting": "[2]; homozygous or double heterozygous for variant UGT1A6 alleles vs UGT1A6*1/*1", "value": 22.5, "unit": "%"}, {"measurement": "half-life", "setting": "[2]; human, serum, intravenous, 1 g, whole study group, from less than 0.5 h up to more than 3.5 h, read-out: half-life (t1/2) values, range across individuals", "value": "0.5 to 3.5", "unit": "h"}, {"measurement": "AUC(0-inf)", "setting": "[2]; [7]", "value": 7.44, "unit": "µg·h/mL"}, {"measurement": "AUC(0-t)", "setting": "[2]; [7]", "value": 6.66, "unit": "µg·h/mL"}, {"measurement": "C0", "setting": "[2]; [7]", "value": 3.34, "unit": "µg/mL"}, {"measurement": "MRT", "setting": "[2]; [7]", "value": 2.23, "unit": "h"}, {"measurement": "half-life", "setting": "[2]; human, serum, concomitant drug therapy: Other (Inhibitors + Inducers) (n = 1), single patient, 1 g iv, read-out: t1/2 (converted)", "value": 1.54, "unit": "h"}, {"measurement": "adverse drug events attributable to acetaminophen", "setting": "[3]", "value": "None of the participants developed adverse drug events"}]}]}
